Experimental data taken from patent publication US20230059463A1, “3-(2-BROMO-4-ALKYNYL-6-ALKOXYPHENYL)-SUBSTITUTED 5-SPIROCYCLOHEXYL-3-PYRROLIN-2-ONES AND THEIR USE AS HERBICIDES” (Bayer Aktiengesellschaft, priority 2019, published 2023).

Key:
Type in all cases: in vivo
Alopecurus myosuroides [1] = assay: Pre-emergence herbicidal effect; conditions: 80 g/ha, scored visually after 3 weeks, 100% = plants have died, 0% = like control plants
From the text: (§1) Seeds of monocotyledonous and dicotyledonous weed plants and crop plants are laid out in sandy loam soil in wood-fiber pots and covered with soil. The compounds of the invention, formulated in the form of wettable powders (WP) or as emulsion concentrates (EC), are then applied to the surface of the covering soil as aqueous suspension or emulsion at a water application rate equating to 600 to 800 L/ha with addition of 0.2% wetting agent.
(§2) After the treatment, the pots are placed in a greenhouse and kept under good growth conditions for the trial plants. The damage to the test plants is scored visually after a test period of 3 weeks by comparison with untreated controls (herbicidal activity in percent (%): 100% activity=the plants have died, 0% activity=like control plants).

Lolium rigidum [2] = assay: Pre-emergence herbicidal effect; conditions: 80 g/ha, scored visually after 3 weeks, 100% = plants have died, 0% = like control plants
From the text: as §1, §2

Setaria viridis [3] = assay: Pre-emergence herbicidal effect; conditions: 80 g/ha, scored visually after 3 weeks, 100% = plants have died, 0% = like control plants
From the text: as §1, §2

Alopecurus myosuroides [4] = assay: Post-emergence herbicidal effect; conditions: 80 g/ha, post-emergence at one-leaf stage, assessed visually after about 3 weeks; 100% = plants have died, 0% = like control plants
Method: (§3) Seeds of monocotyledonous and dicotyledonous weed and crop plants are laid out in sandy loam soil in wood-fiber pots, covered with soil and cultivated in a greenhouse under good growth conditions. 2 to 3 weeks after sowing, the test plants are treated at the one-leaf stage. The compounds of the invention, formulated in the form of wettable powders (WP) or as emulsion concentrates (EC), are then sprayed onto the green parts of the plants as aqueous suspension or emulsion at a water application rate equating to 600 to 800 l/ha with addition of 0.2% wetting agent. After the test plants have been left to stand in the greenhouse under optimal growth conditions for about 3 weeks, the action of the preparations is assessed visually in comparison to untreated controls (herbicidal action in per cent (%): 100% activity=the plants have died, 0% activity=like control plants).

Digitaria sanguinalis = assay: Post-emergence herbicidal effect; conditions: 80 g/ha, post-emergence at one-leaf stage, assessed visually after about 3 weeks; 100% = plants have died, 0% = like control plants
Method: as §3

Echinochloa crus-galli [5] = assay: Post-emergence herbicidal effect; conditions: 80 g/ha, post-emergence at one-leaf stage, assessed visually after about 3 weeks; 100% = plants have died, 0% = like control plants
Method: as §3

Lolium rigidum [6] = assay: Post-emergence herbicidal effect; conditions: 80 g/ha, post-emergence at one-leaf stage, assessed visually after about 3 weeks; 100% = plants have died, 0% = like control plants
Method: as §3

Setaria viridis [7] = assay: Post-emergence herbicidal effect; conditions: 80 g/ha, post-emergence at one-leaf stage, assessed visually after about 3 weeks; 100% = plants have died, 0% = like control plants
Method: as §3

Avena fatua = assay: Pre-emergence herbicidal effect; conditions: 80 g/ha, scored visually after 3 weeks, 100% = plants have died, 0% = like control plants
From the text: as §1, §2

Echinochloa crus-galli [8] = assay: Pre-emergence herbicidal effect; conditions: 80 g/ha, scored visually after 3 weeks, 100% = plants have died, 0% = like control plants
From the text: as §1, §2

Hordeum murinum [9] = assay: Pre-emergence herbicidal effect; conditions: 80 g/ha, scored visually after 3 weeks, 100% = plants have died, 0% = like control plants
From the text: as §1, §2

Hordeum murinum [10] = assay: Post-emergence herbicidal effect; conditions: 80 g/ha, post-emergence at one-leaf stage, assessed visually after about 3 weeks; 100% = plants have died, 0% = like control plants
Method: as §3

SMILES | Pre-emergence action against ALOMY (herbicidal activity in percent) (Alopecurus myosuroides [1]) [%] | Pre-emergence action against LOLRI (herbicidal activity in percent) (Lolium rigidum [2]) [%] | Pre-emergence action against SETVI (herbicidal activity in percent) (Setaria viridis [3]) [%] | Post-emergence action against ALOMY (herbicidal action in per cent) (Alopecurus myosuroides [4]) [%] | Post-emergence action against DIGSA (herbicidal action in per cent) (Digitaria sanguinalis) [%] | Post-emergence action against ECHCG (herbicidal action in per cent) (Echinochloa crus-galli [5]) [%] | Post-emergence action against LOLRI (herbicidal action in per cent) (Lolium rigidum [6]) [%] | Post-emergence action against SETVI (herbicidal action in per cent) (Setaria viridis [7]) [%] | Pre-emergence action against AVEFA (herbicidal activity in percent) (Avena fatua) [%] | Pre-emergence action against ECHCG (herbicidal activity in percent) (Echinochloa crus-galli [8]) [%] | Pre-emergence action against HORMU (herbicidal activity in percent) (Hordeum murinum [9]) [%] | Post-emergence action against HORMU (herbicidal action in per cent) (Hordeum murinum [10]) [%]
CCOC(=O)OC1=C(c2c(Br)cc(C#CBr)cc2OC)C(=O)NC12CCCC(OCCOC)C2 (stereo not shown) [Example 1.1.25] | 80 | 90 | 100 | 90 | 80 | 90 | 80 | 90 | – | – | – | –
CC#Cc1cc(Br)c(C2=C(O)C3(CCCC(OCCOC)C3)NC2=O)c(OC)c1 (stereo not shown) [Example 1.1.13] | 100 | 100 | 100 | 100 | – | 100 | 100 | 100 | 100 | 100 | 100 | 100
C#Cc1cc(Br)c(C2=C(OC(=O)OCC)C3(CCCC(OCCC)C3)NC2=O)c(OC)c1 (stereo not shown) [Example 1.1.03] | 90 | 100 | 100 | 80 | 90 | 90 | 80 | 100 | 90 | 100 | 90 | –
C#Cc1cc(Br)c(C2=C(O)C3(CCCC(OCCOC)C3)NC2=O)c(OC)c1 (stereo not shown) [Example 1.1.05] | 90 | 100 | 100 | 90 | 80 | 80 | 80 | 90 | 90 | 100 | 90 | –
C#Cc1cc(Br)c(C2=C(OC(=O)OCC)C3(CCCC(OCCOC)C3)NC2=O)c(OC)c1 (stereo not shown) [Example 1.1.07] | 90 | 100 | 100 | 80 | 90 | 80 | 80 | 90 | 90 | 100 | 90 | –
COCCOC1CCCC2(C1)NC(=O)C(c1c(Br)cc(C#CBr)cc1OC)=C2O (stereo not shown) [Example 1.1.23] | 90 | 90 | 100 | 90 | 80 | 90 | 80 | 100 | – | – | – | –
CC#Cc1cc(Br)c(C2=C([O-])C3(CCCC(OCCC)C3)NC2=O)c(OC)c1.[Na+] (stereo not shown) [Example 1.1.10] | 90 | 100 | 100 | 90 | – | 100 | 90 | 90 | 100 | 100 | 100 | 100
C#Cc1cc(Br)c(C2=C(OC(=O)C(C)C)C3(CCCC(OCCC)C3)NC2=O)c(OC)c1 (stereo not shown) [Example 1.1.04] | 100 | 100 | 100 | 90 | 90 | 80 | 80 | 100 | 90 | 100 | 90 | –
CC#Cc1cc(Br)c(C2=C(OC(=O)OCC)C3(CCCC(OCCC)C3)NC2=O)c(OC)c1 (stereo not shown) [Example 1.1.11, 3-[2-Bromo-6-methoxy-4-(prop-1-yn-1-yl)phenyl]-2-oxo-7-propoxy-1-azaspiro[4.5]dec-3-en-4-yl ethyl carbonate] | – | – | – | – | – | – | – | – | – | – | – | 100
C#Cc1cc(Br)c(C2=C(OC(=O)C(C)C)C3(CCCC(OCCOC)C3)NC2=O)c(OC)c1 (stereo not shown) [Example 1.1.08] | 100 | 100 | 100 | 90 | 90 | 80 | 90 | 90 | 90 | 100 | 90 | –
CC#Cc1cc(Br)c(C2=C(OC(=O)C(C)C)C3(CCCC(OCCC)C3)NC2=O)c(OC)c1 (stereo not shown) [Example 1.1.12] | 100 | 100 | 100 | – | – | – | – | – | 90 | 100 | 100 | –
